Consider five molecules from patent publication US20120264827A1, “SULFANYLAMIDE DERIVATIVES, USES THEREOF AND COMPOSITIONS COMPRISING THEM” (YISSUM RESEARCH DEVELOPMENT COMPANY OF THE HEBREW …, priority 2009, published 2012).

Series [1] relates to maximal electroshock seizure (MES). To be noted: cited from earlier work.
Series [2] shares this test system. Conditions: rats, cited from earlier work; for PI (TD50/ED50) in rat MES test: reference or literature compound.
In series [3] the test system is subcutaneous metrazol (pentylenetetrazol) seizure. To be noted: reference AED; species not stated; cited from earlier work.
Another series relates to rats. The series can be described thus: Neurotoxicity, median neurotoxic dose (TD50), rats, oral. To be noted: rats dosed orally.

Description for rats: The tested compounds were suspended in 0.5% methylcellulose and administered (a) intraperitioneally (ip) to adult male CF no. 1 albino mice (18-25 g) in volume of 0.01 mL/g body weight and (b) orally to adult male Sprague-Dawley albino rats (100-150 g) in volume of 0.04 mL per 10 g of body weight.
The TD50 was determined by varying the dose of the tested compounds until four points were established between the dose level that induced no signs of minimal motor impairment in any of the animals and the dose at which all the animals were considered impaired. […] The PIs were calculated by dividing the TD50 by the ED50.

For `CC1(C)C(C(=O)Nc2ccc(S(N)(=O)=O)cc2)C1(C)C` [Compound 7, 4-(2,2,3,3-tetramethylcyclopropanecarboxamido)-benzenesulfon amide], the “MES test ED50” value in series [1] (MES test in mice and rats, previously synthesized by the inventors) was 26 mg/kg.
For `NS(=O)(=O)Cc1noc2ccccc12` [Zonisamide], in series [2] (reference AED), the “Rat-MES test ED50” value was 21 mg/kg. Besides, in series [2], the “PI (TD50/ED50) in rat MES test” value is 9.1. Moreover, in series [3], the “anticonvulsant activity in the scMet test” value is reported as “does not display anticonvulsant activity”.
Consider `CCCC(CCC)C(=O)O` [VPA, 2-propylpentanoic acid], for which the “TD50 (neurotoxicity)” value with rats turned out to be 784 mg/kg.
Take `CCCC(CCC)C(=O)Nc1ccc(S(N)(=O)=O)cc1` [Compound 6, 4-(valproylamido)-benzenesulfonamide]: the “mice-MES test ED50” value in series [1] (mice, previous studies) is listed as 21 mg/kg.
In the case of `CC1(C)C(C(=O)Nc2nnc(S(N)(=O)=O)s2)C1(C)C` [5-(2,2,3,3-tetramethylcyclopropanecarboxamide)-1,3,4-thiamidazole-2-sulfonamide], the “PI (TD50/ED50) in rat MES test” value in series [2] is given as “above 50”.
